Each block holds one compound with its values, some of them ahead of it.
Tests used:
HUT102 cells = assay: HUT102 cell viability; format: cell-based; settings: various concentrations, FIG. 1A
Description: (§1) HUT 102 cells and patient-derived ATL cells were treated with various concentrations of mJJ64C (Compound 17) or mJJ64 (Compound 1). Cell viability was determined.

[1] = tested on: patient-derived ATL cells; assay: ATL patient-derived cell viability; format: cell-based; settings: various concentrations, FIG. 1B
Description: as §1

Akt3 = Akt3 (Homo sapiens, UniProt Q9Y243); assay: Akt3 inhibition (no method described)
Chain of Akt3 (Q9Y243 whole entry): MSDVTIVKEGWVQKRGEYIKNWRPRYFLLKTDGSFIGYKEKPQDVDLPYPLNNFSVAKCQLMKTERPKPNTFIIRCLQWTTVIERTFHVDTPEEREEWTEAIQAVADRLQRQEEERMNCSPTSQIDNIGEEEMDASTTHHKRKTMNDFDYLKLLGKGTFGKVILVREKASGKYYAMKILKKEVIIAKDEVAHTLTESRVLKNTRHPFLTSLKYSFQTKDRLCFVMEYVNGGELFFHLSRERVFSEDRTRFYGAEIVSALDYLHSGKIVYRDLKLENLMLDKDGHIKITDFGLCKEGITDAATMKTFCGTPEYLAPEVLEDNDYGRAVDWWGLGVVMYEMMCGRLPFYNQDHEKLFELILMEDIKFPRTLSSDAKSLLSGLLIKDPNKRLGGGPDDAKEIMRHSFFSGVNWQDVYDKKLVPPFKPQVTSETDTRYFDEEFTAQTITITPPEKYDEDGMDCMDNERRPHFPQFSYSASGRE

b-cat = b-cat gene expression in HUT102 cells (RT-PCR); format: cell-based; settings: at 2 uM and above, FIG. 2
Description: (§2) HUT102 cells were treated with different concentrations of Compound 17 (0.5 uM, 1 uM, 2 uM and 4 uM). Expression of b-cat, c-myc, and survivin were evaluated using RT-PCR.

c-myc = c-myc gene expression in HUT102 cells (RT-PCR); format: cell-based; settings: at 2 uM and above, FIG. 2
Description: as §2

survivin = survivin gene expression in HUT102 cells (RT-PCR); format: cell-based; settings: at 2 uM and above, FIG. 2
Description: as §2

Structure (SMILES): O=C(O)c1ccc2nccc(Nc3ccc(C(=O)Nc4ccc(Nc5ccncc5)cc4)cc3)c2c1 [Compound 18]
- cell viability (HUT102 cells): reduce cell viability

- Akt3 activity (Akt3): selectively inhibits Akt3 activity
Structure (SMILES): O=C(Nc1ccc(Nc2ccncc2)cc1)c1ccc(Nc2ccnc3ccc([N+](=O)[O-])cc23)cc1 [Compound 1, 4-[(6-nitroquinolin-4-yl)amino]-N-[4-(pyridin-4-ylamino)phenyl]benzamide]
- cell viability [1]: reduce cell viability

Structure (SMILES): O=C(Nc1cccc(Nc2ccncc2)c1)c1cccc(Nc2ccnc3ccc(F)cc23)c1 [Compound 17]
- expression of b-cat (b-cat): significantly inhibits
- expression of c-myc (c-myc): significantly inhibits
- expression of survivin (survivin): significantly inhibits
